The text below walks through data of patent publication US11578084B2, “Condensed ring compounds having dopamine D3 receptor antagonistic effect” (Shionogi & Co., Ltd., priority 2018, dated 2023).

Each structure is given as a SMILES string. Read-outs that look alike come from different tables or passages of the source.

The target of data set [1] is human recombinant dopamine D3 receptor (Homo sapiens (Human), UniProt P35462). As to the kind of experiment: Test of binding inhibition for dopamine D3 receptor ([3H]-Methylspiperone SPA). Conditions: Jump-In HEK cell membranes, 2 nM [3H]-Methylspiperone, 120 min at 25° C.; read-out: hD3_Ki. The procedure, abridged:
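SPA radioligand binding on Jump-In HEK membranes expressing human D3 receptor (4 µg/well) with 2 nM [3H]-methylspiperone (final), incubated 120 min at 25 °C. Non-specific binding defined with 10 µM butaclamol. Percent inhibition computed against total and non-specific binding; Ki from dose-response curves.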

The target in data set [2] is human ether-a-go-go related gene (hERG) channel (Homo sapiens (Human), UniProt Q12809). Put plainly: hERG test (whole cell patch clamp, IKr). Conditions: 3 μM, CHO cells expressing hERG, tail peak current. The class given is cell-based. (In general: The hERG channel carries a current that helps repolarise heart muscle cells.)
human ether-a-go-go related gene (hERG) channel, sequence (Q12809 whole entry): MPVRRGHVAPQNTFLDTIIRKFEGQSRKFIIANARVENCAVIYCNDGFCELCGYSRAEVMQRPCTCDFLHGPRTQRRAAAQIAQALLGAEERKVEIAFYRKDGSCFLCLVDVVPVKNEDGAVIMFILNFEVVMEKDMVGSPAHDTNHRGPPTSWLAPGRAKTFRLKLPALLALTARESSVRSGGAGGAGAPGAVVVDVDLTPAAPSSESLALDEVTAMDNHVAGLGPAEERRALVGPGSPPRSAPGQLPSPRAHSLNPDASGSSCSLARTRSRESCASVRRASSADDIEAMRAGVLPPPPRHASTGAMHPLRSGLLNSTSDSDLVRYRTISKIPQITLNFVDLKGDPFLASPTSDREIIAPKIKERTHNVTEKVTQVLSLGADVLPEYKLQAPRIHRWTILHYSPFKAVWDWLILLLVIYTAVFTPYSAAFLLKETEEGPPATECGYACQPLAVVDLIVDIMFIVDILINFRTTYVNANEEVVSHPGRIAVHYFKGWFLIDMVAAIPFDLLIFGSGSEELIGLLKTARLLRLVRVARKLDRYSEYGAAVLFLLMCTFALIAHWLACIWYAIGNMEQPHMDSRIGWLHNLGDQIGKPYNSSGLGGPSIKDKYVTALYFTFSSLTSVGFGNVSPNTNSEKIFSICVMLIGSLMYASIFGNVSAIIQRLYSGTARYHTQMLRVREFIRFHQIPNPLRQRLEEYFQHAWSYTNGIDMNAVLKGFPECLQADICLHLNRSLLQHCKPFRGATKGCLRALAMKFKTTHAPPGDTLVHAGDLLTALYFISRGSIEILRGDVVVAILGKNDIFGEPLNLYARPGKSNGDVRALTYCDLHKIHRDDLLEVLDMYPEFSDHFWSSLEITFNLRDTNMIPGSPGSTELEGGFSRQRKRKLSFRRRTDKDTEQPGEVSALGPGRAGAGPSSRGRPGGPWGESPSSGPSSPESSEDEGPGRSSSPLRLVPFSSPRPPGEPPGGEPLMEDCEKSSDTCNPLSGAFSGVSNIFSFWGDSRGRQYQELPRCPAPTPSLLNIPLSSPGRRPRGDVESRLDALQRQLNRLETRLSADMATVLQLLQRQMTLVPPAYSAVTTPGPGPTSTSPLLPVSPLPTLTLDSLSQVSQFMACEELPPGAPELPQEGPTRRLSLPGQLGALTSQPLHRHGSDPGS
The target in data set [3] is human recombinant dopamine D2 receptor (Homo sapiens (Human), UniProt P14416). Put plainly: Test of binding inhibition for dopamine D2 receptor ([3H]-Methylspiperone SPA). The note with it: Jump-In HEK cell membranes, read-out: hD2_Ki. The procedure, abridged:
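Scintillation proximity competition binding of [3H]-Methylspiperone to Jump-In HEK membranes expressing human D2 (2 μg protein/well) on WGA SPA beads (0.2 mg/well), 120 min at 25° C.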

The target in data set [4] is hERG channel (IKr) (Homo sapiens (Human), UniProt Q12809). As to the kind of experiment: hERG test (whole cell patch clamp, IKr). Type of data set: cell-based. Conditions: human, CHO cells expressing hERG channel, pH 7.4, 3 μM, tail peak current.
hERG channel (IKr), sequence (Q12809 whole entry): as above
Data set [5] has as its target human MDR1-expressing cells (Homo sapiens (Human), UniProt P08183). As to the kind of experiment: P-gp substrate test (Transwell, MDR1-expressing cells vs parent cells). The class given is in vitro ADME. The note with it: efflux ratio of MDR1-expressing cells compared with parent cells. The method, then: Test Example 14: P-Gp Substrate Test The compound of the present invention was added to one side of Transwell (registered trademark, CORNING) where human MDR1-expressing cells or parent cells have been monolayer-cultured. The cells were reacted for a constant time. The membrane permeability coefficients from the apical side toward the basolateral side (A→B) and from the basolateral side toward the apical side (B→A) were calculated for the MDR1-expressing cells or the parent cells, and the efflux ratio (ER; ratio of the membrane permeability coefficients of B→A and A→B) values of the MDR1-expressing cells and the parent cells were calculated. The efflux ratio (ER values) of the MDR1-expressing cells and the parent cells were compared to confirm whether or not the compound of the present invention would be a P-gp substrate.

The mark [6] stands for this setting: 1.2 nM [3H]-Methylspiperone, 120 min at 25° C.

human recombinant dopamine D2 receptor, sequence (P14416 whole entry): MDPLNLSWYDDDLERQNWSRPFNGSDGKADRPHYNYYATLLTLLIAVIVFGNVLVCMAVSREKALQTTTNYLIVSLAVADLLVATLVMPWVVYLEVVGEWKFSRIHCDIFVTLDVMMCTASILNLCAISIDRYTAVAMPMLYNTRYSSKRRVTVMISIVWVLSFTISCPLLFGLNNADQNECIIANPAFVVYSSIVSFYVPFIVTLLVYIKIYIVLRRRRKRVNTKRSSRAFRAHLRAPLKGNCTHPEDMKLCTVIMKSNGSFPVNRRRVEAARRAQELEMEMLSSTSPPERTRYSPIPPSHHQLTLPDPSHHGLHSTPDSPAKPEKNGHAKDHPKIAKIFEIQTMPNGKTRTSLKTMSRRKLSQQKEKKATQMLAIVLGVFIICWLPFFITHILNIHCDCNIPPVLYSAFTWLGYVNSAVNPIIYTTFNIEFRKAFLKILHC
human recombinant dopamine D3 receptor, sequence (P35462 whole entry): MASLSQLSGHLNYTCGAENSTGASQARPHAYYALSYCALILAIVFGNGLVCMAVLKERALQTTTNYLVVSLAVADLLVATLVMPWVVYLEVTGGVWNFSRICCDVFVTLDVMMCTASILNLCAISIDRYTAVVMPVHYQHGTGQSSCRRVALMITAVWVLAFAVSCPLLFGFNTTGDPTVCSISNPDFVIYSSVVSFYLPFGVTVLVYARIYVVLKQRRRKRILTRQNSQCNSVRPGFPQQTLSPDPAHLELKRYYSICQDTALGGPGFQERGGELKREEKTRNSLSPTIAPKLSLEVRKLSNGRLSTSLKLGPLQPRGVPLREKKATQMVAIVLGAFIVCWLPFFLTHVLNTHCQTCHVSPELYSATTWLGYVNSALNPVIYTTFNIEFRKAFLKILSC
human MDR1-expressing cells, sequence (P08183 whole entry): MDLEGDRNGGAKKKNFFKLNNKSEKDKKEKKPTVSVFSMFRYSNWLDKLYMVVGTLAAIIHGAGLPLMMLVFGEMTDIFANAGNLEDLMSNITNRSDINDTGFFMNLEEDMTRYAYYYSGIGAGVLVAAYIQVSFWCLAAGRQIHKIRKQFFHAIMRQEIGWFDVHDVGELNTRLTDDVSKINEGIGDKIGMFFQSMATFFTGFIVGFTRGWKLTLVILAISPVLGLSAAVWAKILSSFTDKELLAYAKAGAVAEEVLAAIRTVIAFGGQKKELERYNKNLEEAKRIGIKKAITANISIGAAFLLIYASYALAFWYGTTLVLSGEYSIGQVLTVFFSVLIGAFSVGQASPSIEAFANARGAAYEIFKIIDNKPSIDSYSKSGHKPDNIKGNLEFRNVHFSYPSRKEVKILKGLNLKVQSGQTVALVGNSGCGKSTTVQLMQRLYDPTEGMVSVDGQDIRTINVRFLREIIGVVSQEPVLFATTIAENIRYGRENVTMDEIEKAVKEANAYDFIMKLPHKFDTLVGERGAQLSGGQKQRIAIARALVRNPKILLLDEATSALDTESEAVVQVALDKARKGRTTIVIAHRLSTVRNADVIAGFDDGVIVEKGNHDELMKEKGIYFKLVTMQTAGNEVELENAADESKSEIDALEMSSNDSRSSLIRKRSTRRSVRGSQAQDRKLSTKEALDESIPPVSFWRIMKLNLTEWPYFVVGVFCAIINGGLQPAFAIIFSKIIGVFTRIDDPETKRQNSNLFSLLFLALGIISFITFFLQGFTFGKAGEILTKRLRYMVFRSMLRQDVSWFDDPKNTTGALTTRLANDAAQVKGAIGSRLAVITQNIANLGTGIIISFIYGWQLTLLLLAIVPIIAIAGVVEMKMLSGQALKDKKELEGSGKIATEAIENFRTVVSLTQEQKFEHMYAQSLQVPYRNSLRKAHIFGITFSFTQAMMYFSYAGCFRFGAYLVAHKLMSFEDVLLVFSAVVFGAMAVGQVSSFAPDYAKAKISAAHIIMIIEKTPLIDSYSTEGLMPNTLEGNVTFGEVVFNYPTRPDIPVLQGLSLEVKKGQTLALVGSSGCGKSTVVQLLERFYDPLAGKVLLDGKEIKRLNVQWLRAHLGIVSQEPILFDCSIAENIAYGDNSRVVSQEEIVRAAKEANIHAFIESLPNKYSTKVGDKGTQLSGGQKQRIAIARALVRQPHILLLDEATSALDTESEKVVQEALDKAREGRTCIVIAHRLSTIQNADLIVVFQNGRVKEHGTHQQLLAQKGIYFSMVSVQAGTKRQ

Take `CC(Oc1nc2c(s1)CCN(CC[C@H]1CC[C@H](NC(=O)c3cccc4nn(C)cc34)CC1)CC2)C(F)F` (single isomer, unassigned) [Example I-119]: the Ki in data set [1] was found to be 0.00011 µM; in data set [3] (setting [6]) it was 1.2 µM. The “hERG inhibition(%) at 3 μM” value in data set [2] was 23.1%.

For the compound `Cn1ncc(CC(=O)N[C@H]2CC[C@](F)(CCN3CCc4ccc(OCC(F)F)nc4CC3)CC2)n1` [Example I-031], the Ki in data set [1] was 0.00019 µM; in data set [3] (setting [6]), 0.8 µM. Further, in data set [4], the inhibition (usually the relative decrease from the control value, in per cent) at 3 µM came to 23.8%. Further, in data set [5], the “P-gp ER ratio” value is given as 1.5.

`Cn1ncc(CC(=O)N[C@H]2CC[C@](F)(CCN3CCc4nc(OCC(C)(F)F)sc4CC3)CC2)n1` [I′-39]: the values for the Ki in data set [1] and in data set [3] ([3H]-Methylspiperone 1.2 nM) were 0.00049 µM and 0.96 µM, respectively. Moreover, in data set [4], testing at 3 µM gave an inhibition of 17.3%. Also, the “P-gp ER ratio” value in data set [5] worked out at 1.9.
